Series [1] in a line: Stability study at −20 °C. The format is physicochemical.
Series [2] is described as follows: Stability study at different pH values. The format is physicochemical. The settings on record: 2 days.

Entries after “also recorded” stand apart in the source; their conditions may differ.

Experimental findings from PMC7127338 (Bioorganic & Medicinal Chemistry Letters, 2013) are described below.

`C[C@H](NP(=O)(Oc1ccccc1)O[C@H]1O[C@H](CO)[C@@H](O)[C@@H]1F)C(=O)OC1CCCCC1` (stereo partly drawn) [compound 14b, 2-deoxy-2-fluoro-D-arabinofuranose 1-O-phenyl-(cyclohexoxy-alaninyl)-phosphate]: the “Purity after 1 h” value in series [1] (1 h after purification by column chromatography) amounted to 68%. The “Purity after 13 h” value in series [1] (13 h (one night) at −20 °C) was 30%. In addition, the “Purity after 20 h” value in series [1] (20 h, −20 °C) is 8%.

For `C[C@H](NP(=O)(Oc1ccccc1)O[C@H]1O[C@H](CO)[C@@H](O)C1(F)F)C(=O)OC1CCCCC1` (stereo partly drawn) [compound 25c, 2-deoxy-2,2-difluoro-D-ribofuranose 1-O-phenyl-(cyclohexoxy-alaninyl)-phosphate], the “Stability study at −20 °C (degradation)” value in series [1] (storage at −20 °C) is reported as “no degradation at all after 4 months; also recorded: No degradation observed after 4 months”. Also, the “Stability study at pH 5 (degradation)” value in series [2] (pH 5 (acidic)) is recorded as “no degradation at all after 2 days; also recorded: No degradation observed over 2 days”. The “Stability study at pH 7 (degradation)” value in series [2] (pH 7 (neutral)) is on record as “no degradation at all after 2 days; also recorded: No degradation observed over 2 days”.
